# Molecular target: human Plasma Kallikrein (KLKB1) (Homo sapiens (Human), UniProt P03952)
# Assay: Inhibition of KLKB1 endpoint assay
# Assay type: biochemical
# Conditions: fluorogenic substrate H-Pro-Phe-Arg-AMC, 1 hr at Room Temperature, read-out: IC50 measurements for the inhibition of human Plasma Kallikrein (KLKB1)
# Description: The ability of compounds of Formula I to inhibit plasma kallikrein (KLKB1), Factor XIIa (FXIIa), Factor XIa (FXIa), Factor Xa (FXa), Factor IIa (alpha-thrombin; FIIa), plasmin, trypsin, tissue kallikrein 1 (KLK1), Factor VIIa (FVIIa), or FVIIa complexed with Tissue Factor, phospholipids and CaCl2 (FVIIa/TF/PL/CaCl2) was determined using the following biochemical assays in assay buffer (100 mM Tris, 150 mM NaCL, adjusted to a pH of 7.8 with HCl, and containing 0.1% (w/v) BSA and 0.05% (v/v) Tween20) in the presence of 1% (v/v) DMSO:
# Evaluation of the Inhibition of KLKB1 Using an Endpoint Assay
# Subsequently, PPACK II (Calbiochem) was added as a stop solution to achieve a final concentration of 1 μM and fluorescence was measured using an Envision Reader (PerkinElmer) with the wavelength excitation setting of 355 nm and the wavelength emission setting of 460 nm.
# The IC50 values were obtained with the aid of the inhibition of KLKB1 endpoint assay described above.
# human Plasma Kallikrein (KLKB1), sequence (P03952 391-638): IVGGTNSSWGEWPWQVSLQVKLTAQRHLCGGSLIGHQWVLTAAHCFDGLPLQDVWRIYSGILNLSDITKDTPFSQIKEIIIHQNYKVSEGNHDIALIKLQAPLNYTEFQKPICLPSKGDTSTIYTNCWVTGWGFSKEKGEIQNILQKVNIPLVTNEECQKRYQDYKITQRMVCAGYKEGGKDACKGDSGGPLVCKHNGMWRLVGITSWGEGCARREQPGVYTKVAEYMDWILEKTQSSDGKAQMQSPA
# human Plasma Kallikrein (KLKB1), sequence (P03952 20-390 partner): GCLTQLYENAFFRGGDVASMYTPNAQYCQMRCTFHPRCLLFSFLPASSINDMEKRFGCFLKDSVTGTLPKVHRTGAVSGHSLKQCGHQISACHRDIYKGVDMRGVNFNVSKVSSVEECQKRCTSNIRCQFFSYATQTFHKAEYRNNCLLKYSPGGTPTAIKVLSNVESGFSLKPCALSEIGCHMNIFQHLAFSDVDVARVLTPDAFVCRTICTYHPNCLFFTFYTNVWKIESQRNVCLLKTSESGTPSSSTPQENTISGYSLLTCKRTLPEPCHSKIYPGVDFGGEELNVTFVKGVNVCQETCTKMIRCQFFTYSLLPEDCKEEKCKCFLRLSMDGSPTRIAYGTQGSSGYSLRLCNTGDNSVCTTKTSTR
row,Compound,IC50
1,"Nc1nccc2c1CCC2NC(=O)c1cnn(Cc2ccc(CN3C[C@@H]4C[C@@H]4C3=O)cc2)c1 (single isomer, unassigned) [Example 48]",69 nM
2,"Nc1nccc2c1CCC2NC(=O)c1cnn(Cc2ccc(CN3C[C@@H]4C[C@@H]4C3=O)cc2)c1 (single isomer, unassigned) [Example 49]",2 nM
3,"Nc1nccc2c1CCC2NC(=O)c1cn(Cc2ccc(CN3C[C@@H]4C[C@@H]4C3=O)cc2)nc1C(F)(F)F (single isomer, unassigned) [Example 50]",1 nM
4,"Nc1nccc2c1CCC2NC(=O)c1cn(Cc2ccc(CN3C[C@@H]4C[C@@H]4C3=O)cc2)nc1C(F)(F)F (single isomer, unassigned) [Example 51]",89 nM
5,"Nc1nccc2c1CC[C@H]2NC(=O)c1cnn(Cc2ccc(CN3CC4CC4C3=O)c(C(F)(F)F)c2)c1 (single isomer, unassigned) [Example 52]",41 nM
6,"Nc1nccc2c1CC[C@H]2NC(=O)c1cnn(Cc2ccc(CN3CC4CC4C3=O)c(C(F)(F)F)c2)c1 (single isomer, unassigned) [Example 53]",1 nM
7,"Nc1nccc2c1CCC2NC(=O)c1cnn(Cc2ccc(CN3C[C@H]4C[C@H]4C3=O)cc2)c1 (single isomer, unassigned) [Example 54]",46 nM
8,"Nc1nccc2c1CCC2NC(=O)c1cnn(Cc2ccc(CN3C[C@H]4C[C@H]4C3=O)cc2)c1 (single isomer, unassigned) [Example 55]",490 nM
9,"Cc1cc(Cn2cc(C(=O)N[C@@H]3CCc4c3ccnc4N)nn2)ccc1N1CCN2CCCCC2C1=O (single isomer, unassigned) [Example 56]",1200 nM
10,"Cc1cc(Cn2cc(C(=O)N[C@@H]3CCc4c3ccnc4N)nn2)ccc1N1CCN2CCCCC2C1=O (single isomer, unassigned) [Example 57]",6200 nM
11,"Cc1cc(Cn2cc(C(=O)N[C@@H]3CCc4c3ccnc4N)nn2)ccc1N1CCN2CCCC2C1=O (single isomer, unassigned) [Example 58]",1600 nM
12,"Cc1cc(Cn2cc(C(=O)N[C@@H]3CCc4c3ccnc4N)nn2)ccc1N1CCN2CCCC2C1=O (single isomer, unassigned) [Example 59]",2200 nM
13,"Cc1cc(Cn2cc(C(=O)N[C@@H]3CCc4nc(N)ccc43)cn2)ccc1CN1CC2CC2C1=O (single isomer, unassigned) [Example 67]",470 nM
14,"Cc1cc(Cn2cc(C(=O)N[C@@H]3CCc4nc(N)ccc43)cn2)ccc1CN1CC2CC2C1=O (single isomer, unassigned) [Example 68]",10 nM
15,"CC(c1ccc(N2CC3CC3C2)nc1)n1cc(C(=O)N[C@@H]2CCc3c2ccnc3N)cn1 (single isomer, unassigned) [Example 72]",10 nM
16,"CC(c1ccc(N2CC3CC3C2)nc1)n1cc(C(=O)N[C@@H]2CCc3c2ccnc3N)cn1 (single isomer, unassigned) [Example 73]",6 nM
17,"Nc1ccc2c(n1)CC[C@H]2NC(=O)c1cnn(Cc2ccc(CN3C[C@H]4C[C@H]4C3=O)cc2)c1 [Example 1, 1-[4-((1R,5S)-2-Oxo-3-aza-bicyclo[3.1.0]hex-3-ylmethyl)-benzyl]-1H-pyrazole-4-carboxylic acid ((R)-2-amino-6,7-dihydro-5H-[1]pyrindin-5-yl)-amide]",530 nM
18,Nc1ccc2c(n1)CCC2NC(=O)c1cnn(Cc2ccc(N3CCN4CCCC4C3)cc2)c1 (stereo not shown) [Example 2],2100 nM
19,Nc1ccc2c(n1)CC[C@H]2NC(=O)c1cnn(Cc2ccc(CN3C[C@@H]4C[C@@H]4C3=O)cc2)c1 [Example 3],17 nM

row,Compound,IC50
1,Nc1ccc2c(n1)CCC2NC(=O)c1cn(Cc2ccc(CN3CC4CC4C3=O)cc2)nc1C(F)(F)F (stereo not shown) [Example 4],63 nM
2,Nc1nccc2c1CCC2NC(=O)c1cnn(Cc2ccc(CN3CC4CC4C3=O)cc2)c1 (stereo not shown) [Example 5],10 nM
3,Nc1cc2c(cn1)CCC2NC(=O)c1cnn(Cc2ccc(CN3CC4CC4C3=O)cc2)c1 (stereo not shown) [Example 6],71 nM
4,Nc1ccc2c(n1)CC[C@H]2NC(=O)c1cn(Cc2ccc(CN3C[C@H]4C[C@H]4C3=O)cc2)nc1C(F)(F)F [Example 7],420 nM
5,Nc1ccc2c(n1)CC[C@H]2NC(=O)c1cn(Cc2ccc(CN3C[C@@H]4C[C@@H]4C3=O)cc2)nc1C(F)(F)F [Example 8],14 nM
6,Nc1ccc2c(n1)CCC2NC(=O)c1cn(Cc2ccc(CN3CCN4C(=O)CCCC4C3)cc2)nn1 (stereo not shown) [Example 11],> 10000 nM
7,Nc1nccc2c1C(NC(=O)c1cn(Cc3ccc(N4CCN5CCCCC5C4=O)cc3)nn1)CC2 (stereo not shown) [Example 12],> 10000 nM
8,Nc1cc2c(cn1)C(NC(=O)c1cn(Cc3ccc(N4CCN5CCCCC5C4=O)cc3)nn1)CC2 (stereo not shown) [Example 13],> 10000 nM
9,Nc1ccc2c(n1)CCC2NC(=O)c1cnn(Cc2ccc(CN3CC4CC4C3=O)cc2)c1 (stereo not shown) [Example 15],81 nM
10,Cc1nn(Cc2ccc(CN3CC4CC4C3=O)cc2)cc1C(=O)NC1CCc2nc(N)ccc21 (stereo not shown) [Example 16],85 nM
11,Cc1cc(N)nc2c1C(NC(=O)c1cnn(Cc3ccc(CN4CC5CC5C4=O)cc3)c1)CC2 (stereo not shown) [Example 17],42 nM
12,Cc1cc(Cn2cc(C(=O)NC3CCc4nc(N)ccc43)nn2)ccc1N1CCN2CCCCC2C1=O (stereo not shown) [Example 18],1200 nM
13,Cc1cc(N)nc2c1C(NC(=O)c1cn(Cc3ccc(N4CCN5CCCCC5C4=O)cc3)nn1)CC2 (stereo not shown) [Example 19],2600 nM
14,Nc1ccc2c(n1)CC[C@H]2NC(=O)c1cnn(Cc2ccc(CN3CC4CC4C3=O)c(C(F)(F)F)c2)c1 (stereo partly shown) [Example 22],19 nM
15,Nc1nccc2c1CC[C@H]2NC(=O)c1cnn(Cc2ccc(CN3CC4CC4CC3=O)cc2)c1 (stereo partly shown) [Example 23],2 nM
16,Nc1cc(C(F)(F)F)c2c(n1)CCC2NC(=O)c1cnn(Cc2ccc(CN3CC4CC4C3=O)cc2)c1 (stereo not shown) [Example 24],3300 nM
17,Nc1nccc2c1CC[C@H]2NC(=O)c1cnn(Cc2ccc(N3CC4CC4C3)nc2C(F)(F)F)c1 (stereo partly shown) [Example 36],1 nM
18,Nc1nccc2c1CC[C@H]2NC(=O)c1cnn(Cc2cnc(N3CC4CC4C3)cc2C(F)(F)F)c1 (stereo partly shown) [Example 41],1 nM
19,Cc1cc(N2CC3CC3C2)ncc1Cn1cc(C(=O)N[C@@H]2CCc3c2ccnc3N)cn1 (stereo partly shown) [Example 45],4 nM

# Further lines, results first:
row,IC50,Compound
1,3200 nM,Nc1ccc2c(n1)CCC2NC(=O)c1cn(Cc2ccc(N3CCN4CCCCC4C3=O)cc2)nn1 (stereo not shown) [Example 9]
2,560 nM,Nc1ccc2c(n1)CCC2NC(=O)c1cn(Cc2ccc(Cn3cc4c(n3)CCOC4)cc2)nn1 (stereo not shown) [Example 10]
3,5900 nM,Nc1ccc2c(n1)CCC2NC(=O)c1cn(Cc2ccc(CN3CCN4CCCC4C3=O)cc2)nn1 (stereo not shown) [Example 14]
4,> 10000 nM,Nc1ccc2c(n1)CCC2NC(=O)c1cn(Cc2ccc(-n3cc4c(n3)CCOC4)cc2)nn1 (stereo not shown) [Example 27]
5,2200 nM,Nc1ccc2c(n1)CCC2NC(=O)c1cn(Cc2ccc(C3CC4CCCN4C3=O)cc2)nn1 (stereo not shown) [Example 29]
6,24 nM,Nc1ccc2c(n1)CC[C@H]2NC(=O)c1cn(Cc2ccc(N3CC4CC4C3)nc2)nn1 (stereo partly shown) [Example 32]
7,2 nM,Nc1nccc2c1CC[C@H]2NC(=O)c1cn(Cc2ccc(N3CC4CC4C3)nc2)nn1 (stereo partly shown) [Example 33]
8,390 nM,Nc1nccc2c1CC[C@H]2NC(=O)c1cn(Cc2ccc(N3CC(=O)N4CCCC4C3)nc2)nn1 (stereo partly shown) [Example 34]
9,600 nM,Nc1nccc2c1CC[C@H]2NC(=O)c1cn(Cc2ccc(N3CCN4C(=O)COCC4C3)nc2)nn1 (stereo partly shown) [Example 35]
10,8 nM,Nc1ccc2c(n1)CC[C@H]2NC(=O)c1cnn(Cc2ccc(N3CC4CC4C3)nc2C(F)(F)F)c1 (stereo partly shown) [Example 37]
11,1 nM,Nc1nccc2c1CC[C@H]2NC(=O)c1cn(Cc2ccc(N3CC4CC4C3)nc2C(F)(F)F)nn1 (stereo partly shown) [Example 38]
12,14 nM,Nc1ccc2c(n1)CC[C@H]2NC(=O)c1cn(Cc2ccc(N3CC4CC4C3)nc2C(F)(F)F)nn1 (stereo partly shown) [Example 39]
13,9 nM,Nc1ccc2c(n1)CC[C@H]2NC(=O)c1cnn(Cc2cnc(N3CC4CC4C3)cc2C(F)(F)F)c1 (stereo partly shown) [Example 40]
14,1 nM,Nc1nccc2c1CC[C@H]2NC(=O)c1cn(Cc2cnc(N3CC4CC4C3)cc2C(F)(F)F)nn1 (stereo partly shown) [Example 42]
15,13 nM,Nc1ccc2c(n1)CC[C@H]2NC(=O)c1cn(Cc2cnc(N3CC4CC4C3)cc2C(F)(F)F)nn1 (stereo partly shown) [Example 43]
16,30 nM,Cc1cc(N2CC3CC3C2)ncc1Cn1cc(C(=O)N[C@@H]2CCc3nc(N)ccc32)cn1 (stereo partly shown) [Example 44]
17,38 nM,Cc1cc(N2CC3CC3C2)ncc1Cn1cc(C(=O)N[C@@H]2CCc3nc(N)ccc32)nn1 (stereo partly shown) [Example 46]
18,4 nM,Cc1cc(N2CC3CC3C2)ncc1Cn1cc(C(=O)N[C@@H]2CCc3c2ccnc3N)nn1 (stereo partly shown) [Example 47]
19,340 nM,"Nc1ccc2c(n1)CCC2NC(=O)c1cn(Cc2ccc(CN3CC4CCCN4C3=O)cc2)nn1 (stereo not shown) [Example 61, 1-[4-(3-Oxo-tetrahydro-pyrrolo[1,2-c]imidazol-2-ylmethyl)-benzyl]-1H-[1,2,3]triazole-4-carboxylic acid (2-amino-6,7-dihydro-5H-[1]pyrindin-5-yl)-amide]"
20,410 nM,"Nc1ccc2c(n1)CCC2NC(=O)c1cn(Cc2ccc(CN3CC4CC4C3=O)cc2)nn1 (stereo not shown) [Example 62, 1-[4-(2-Oxo-3-aza-bicyclo[3.1.0]hex-3-ylmethyl)-benzyl]-1H-[1,2,3]triazole-4-carboxylicacid (2-amino-6,7-dihydro-5H-[1]pyrindin-5-yl)-amide]"
